The target in one assay is mTOR (Homo sapiens, UniProt P42345). Description: mTOR assay (phosphorylation of 4eBP1, [γ33P]-ATP filter plate). In kind it is biochemical. As to conditions: 10 μM ATP, 1 hour at room temperature. The method, then:
Truncated mTOR kinase and His-tagged 4eBP1 were produced in-house. [γ^33P]-ATP was purchased from Amersham (GE Healthcare). All chemicals, unless otherwise stated, were from Sigma-Aldrich.
Phosphorylation assays were initially performed in a final volume of 20 μL in 384-well polypropylene plate (Greiner). Compounds were typically tested over the range from 100 μM to 0.006 μM, in 8 step dilutions, in duplicate. 10 μL/well of 2× Enzyme-Substrate solution (1.5 μg/mL mTOR, 40 μg/mL 4eBP1 in 1× assay buffer: 10 mM Hepes pH 7.5, 50 mM NaCl and 10 mM MnCl2) were first added to the sample plate containing 1 μL/well of test compound in neat DMSO. The reaction was initiated by adding 10 μL/well of 20 μM ATP solution (final assay concentration 10 μM ATP and 0.4 μCi/well of [γ^33P]-ATP). After 1 hour incubation at room temperature, the reaction was terminated with 40 μL/well of 20 mM EDTA/1 mM ATP solution.
50 μL/well of the stopped reaction mix was then transferred to 384-well MultiScreenHTS-PH filter plate (Millipore) pre-added with 50 μL/well of 1% phosphoric acid. The plate was washed 4 times with 120 μL/well of 0.5% phosphoric acid via vacuum filtration. Finally, 10 μL/well of Optiphase™ SuperMix liquid scintillation cocktail (Perkin Elmer) was added. After minimum 1 hour of incubation, counting was performed in a Wallac MicroBeta TriLux scintillation counter using coincidence counting mode with crosstalk correction.

Another assay deals with T1, PI3K p110α/p85 (Homo sapiens, UniProt P42336).
T1 construct: made in house
Description: PI3K assay ([γ33P]ATP, PtdIns/PtdSer coated plates). In kind it is biochemical. To be noted: 2 μM ATP, 1 hour at RT; read-out: IC50 (PI3Kα). The method, then: Recombinant PI3K p110α/p85 was prepared in-house. Phosphatidylinositol (PtdIns), phosphotidylserine (PtdSer) and all other unspecified chemicals were purchased from Sigma-Aldrich. [γ^33P]ATP and Optiphase scintillant were obtained from Perkin Elmer.
Assays were performed in a final assay volume of 25 μL in 384-well Maxisorp plates (Nunc). Compounds were tested at 8 concentrations in 3-fold serial dilution, generally starting from 10 μM. Maxisorp plates were coated with 20 μL/well of a 1:1 mixture of PtdIns and PtdSer [0.1 mg/mL each dissolved in chloroform:ethanol (3:7)] and left overnight in a fume hood at room temperature (RT) to dry.
The enzyme reaction was created by pipetting 5 μL/well of compound (in 2.5% DMSO), 10 μL/well of enzyme (0.5 μg/mL p110α+1 μg/mL p85), and 10 μL/well of 5 μM ATP with 5 μCi/mL [γ^33P]ATP in assay buffer (final concentrations: 0.2 μg/mL p110α, 2 μM ATP, […] [γ^33P]ATP in 1× assay buffer: 100 mM Tris-HCl pH 7.0, 200 mM NaCl, 8 mM MgCl2). The reaction was incubated for 1 hour at RT and terminated with 30 μL/well of 50 mM EDTA solution. The plate was then washed twice with TBS, dried, and added with 30 μL/well of scintillant before it was counted in a MicroBeta Trilux.

Each structure is given as a SMILES string. Some results are limits rather than exact numbers.

T1 sequence (P42336 whole entry): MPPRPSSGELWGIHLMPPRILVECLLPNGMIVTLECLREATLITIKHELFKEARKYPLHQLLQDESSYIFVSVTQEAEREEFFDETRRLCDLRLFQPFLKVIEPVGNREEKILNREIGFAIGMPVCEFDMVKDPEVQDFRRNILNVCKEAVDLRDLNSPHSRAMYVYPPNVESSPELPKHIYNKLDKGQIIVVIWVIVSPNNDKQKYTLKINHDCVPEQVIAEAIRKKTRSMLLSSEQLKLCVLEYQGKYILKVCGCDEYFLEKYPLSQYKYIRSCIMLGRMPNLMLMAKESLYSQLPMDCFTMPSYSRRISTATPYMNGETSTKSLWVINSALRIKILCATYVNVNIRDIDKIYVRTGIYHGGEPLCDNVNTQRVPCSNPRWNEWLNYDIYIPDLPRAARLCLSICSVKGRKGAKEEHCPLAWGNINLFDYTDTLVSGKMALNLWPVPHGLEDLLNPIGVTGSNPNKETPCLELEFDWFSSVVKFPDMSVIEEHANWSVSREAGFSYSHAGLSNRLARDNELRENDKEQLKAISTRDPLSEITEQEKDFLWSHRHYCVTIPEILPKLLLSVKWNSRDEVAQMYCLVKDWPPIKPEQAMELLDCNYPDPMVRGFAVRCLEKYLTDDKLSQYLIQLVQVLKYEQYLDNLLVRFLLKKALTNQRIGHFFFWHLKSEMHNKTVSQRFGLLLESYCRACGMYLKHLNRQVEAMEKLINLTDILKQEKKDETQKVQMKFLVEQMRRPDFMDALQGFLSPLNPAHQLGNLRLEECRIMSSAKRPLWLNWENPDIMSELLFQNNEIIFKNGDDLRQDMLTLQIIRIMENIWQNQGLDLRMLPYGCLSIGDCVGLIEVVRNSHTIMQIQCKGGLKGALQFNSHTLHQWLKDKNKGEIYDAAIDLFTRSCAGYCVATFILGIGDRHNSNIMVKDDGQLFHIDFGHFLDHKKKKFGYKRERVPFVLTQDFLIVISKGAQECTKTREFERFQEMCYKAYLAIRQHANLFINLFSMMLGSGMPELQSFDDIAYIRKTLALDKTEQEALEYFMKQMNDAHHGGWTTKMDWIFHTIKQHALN
T1 sequence (P27986 whole entry partner): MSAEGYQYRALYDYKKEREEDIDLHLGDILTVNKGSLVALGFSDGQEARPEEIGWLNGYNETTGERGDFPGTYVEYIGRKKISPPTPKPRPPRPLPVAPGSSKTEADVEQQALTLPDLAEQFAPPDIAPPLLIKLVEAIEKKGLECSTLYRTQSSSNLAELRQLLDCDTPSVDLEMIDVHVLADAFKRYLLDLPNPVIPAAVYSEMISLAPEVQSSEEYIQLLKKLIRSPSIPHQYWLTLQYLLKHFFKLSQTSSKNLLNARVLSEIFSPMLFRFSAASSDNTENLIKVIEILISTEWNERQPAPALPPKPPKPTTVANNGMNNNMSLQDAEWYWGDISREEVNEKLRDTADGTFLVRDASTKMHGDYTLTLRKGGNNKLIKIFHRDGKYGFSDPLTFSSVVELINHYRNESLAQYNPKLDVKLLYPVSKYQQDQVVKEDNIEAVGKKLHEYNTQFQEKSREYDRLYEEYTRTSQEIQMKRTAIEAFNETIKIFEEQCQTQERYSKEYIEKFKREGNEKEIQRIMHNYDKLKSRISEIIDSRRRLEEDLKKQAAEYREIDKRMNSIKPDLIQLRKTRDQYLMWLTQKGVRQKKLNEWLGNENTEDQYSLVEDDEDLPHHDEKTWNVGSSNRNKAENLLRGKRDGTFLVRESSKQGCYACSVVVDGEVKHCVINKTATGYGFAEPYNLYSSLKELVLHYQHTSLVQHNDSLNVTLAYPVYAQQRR
mTOR, sequence (P42345 1382-2549 limits assumed): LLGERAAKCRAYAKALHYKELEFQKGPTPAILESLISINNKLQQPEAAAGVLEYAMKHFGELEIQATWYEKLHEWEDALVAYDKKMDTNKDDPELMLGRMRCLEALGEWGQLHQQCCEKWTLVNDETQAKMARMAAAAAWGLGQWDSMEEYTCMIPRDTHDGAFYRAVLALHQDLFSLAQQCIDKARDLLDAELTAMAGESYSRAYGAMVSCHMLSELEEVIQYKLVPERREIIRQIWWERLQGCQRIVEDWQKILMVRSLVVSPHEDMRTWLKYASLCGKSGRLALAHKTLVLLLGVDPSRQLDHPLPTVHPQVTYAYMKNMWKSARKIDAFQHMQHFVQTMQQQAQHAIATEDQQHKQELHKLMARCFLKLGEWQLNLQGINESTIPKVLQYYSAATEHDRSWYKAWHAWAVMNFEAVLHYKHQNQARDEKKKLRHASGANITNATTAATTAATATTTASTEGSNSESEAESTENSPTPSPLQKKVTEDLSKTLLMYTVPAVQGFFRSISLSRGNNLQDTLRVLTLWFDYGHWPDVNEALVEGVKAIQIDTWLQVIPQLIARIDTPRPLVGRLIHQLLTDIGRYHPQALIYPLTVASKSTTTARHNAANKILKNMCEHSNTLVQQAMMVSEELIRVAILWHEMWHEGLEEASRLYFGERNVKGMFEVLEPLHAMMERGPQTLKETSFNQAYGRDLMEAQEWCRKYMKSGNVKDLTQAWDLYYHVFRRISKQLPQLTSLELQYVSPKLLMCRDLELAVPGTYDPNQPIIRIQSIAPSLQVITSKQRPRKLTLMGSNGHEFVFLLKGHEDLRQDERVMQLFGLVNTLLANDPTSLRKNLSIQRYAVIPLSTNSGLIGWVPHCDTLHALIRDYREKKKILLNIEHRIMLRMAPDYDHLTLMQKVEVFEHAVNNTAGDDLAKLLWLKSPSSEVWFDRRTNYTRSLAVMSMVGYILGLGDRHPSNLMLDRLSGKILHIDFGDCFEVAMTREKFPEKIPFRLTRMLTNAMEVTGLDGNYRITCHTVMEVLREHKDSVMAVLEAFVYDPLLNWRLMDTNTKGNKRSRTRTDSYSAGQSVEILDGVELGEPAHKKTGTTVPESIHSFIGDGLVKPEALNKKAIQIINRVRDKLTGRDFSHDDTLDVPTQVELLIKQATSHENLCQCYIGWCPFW

The IC50 is the midpoint of a concentration-inhibition curve. `O=C(CCN1CCCCC1)Nc1ccc(Cn2cnc3c(-c4cccc(O)c4)nc(N4CCOCC4)nc32)cc1` [Compound 26, N-{4-[6-(3-Hydroxy-phenyl)-2-morpholin-4-yl-purin-9-ylmethyl]-phenyl}-3-piperidin-1-yl-propionamide]: the IC50 on mTOR was 1000 to 5000 nM; at PI3K p110α/p85, below 1000 nM.
On to `COc1cc(Cn2cnc3c(-c4cccc(O)c4)nc(N4CCOCC4)nc32)cc(OC)c1` [Compound 14], for which the IC50 on mTOR and on PI3K p110α/p85 was below 1000 nM each time.
In the case of `CC(C)(C)CC(=O)N1CCC(n2cnc3c(-c4cccc5[nH]ccc45)nc(N4CCOCC4)nc32)CC1` [Compound 96], the IC50 against mTOR and on PI3K p110α/p85 was below 1000 nM in each case.
`OCc1cccc(-c2nc(N3CCOCC3)nc3c2ncn3Cc2ccccc2)c1` [Compound 1]: the IC50 on mTOR is 1000 to 5000 nM; on PI3K p110α/p85, below 1000 nM.
Take `CS(=O)(=O)Nc1cccc(-c2nc(N3CCOCC3)nc3c2ncn3Cc2ccccc2)c1` [Compound 43]: the IC50 against mTOR and on PI3K p110α/p85 was above 5000 nM in each case.
Consider `CS(=O)(=O)N1CCN(C(=O)Cn2cnc3c(-c4cccc(O)c4)nc(N4CCOCC4)nc32)CC1` [Compound 107], for which the IC50 against mTOR and on PI3K p110α/p85 was below 1000 nM each time.
On to `C=CCCn1cnc2c(-c3ccc4cc[nH]c4c3)nc(N3CCOCC3)nc21` [Compound 23], for which the half-maximal inhibitory concentration (IC50) against mTOR was 1000 to 5000 nM; on PI3K p110α/p85, above 5000 nM.
As to `CCC(C)n1c(N2CCCC2)nc2c(-c3cccc(O)c3)nc(N3CCOCC3)nc21` (centres unmarked) [Compound 125], the IC50 at mTOR and at PI3K p110α/p85 was below 1000 nM in each case.
With `CN1CCN(C(=O)Cn2cnc3c(-c4cccc(O)c4)nc(N4CCOCC4)nc32)CC1` [Compound 76], the values for the IC50 on mTOR and at PI3K p110α/p85 were 1000 to 5000 nM and below 1000 nM, respectively.
As for `CCc1nc2c(-c3cccc(O)c3)nc(N3CCOCC3)nc2n1C(C)CC` (centres unmarked) [Compound 112, 3-(9-sec-Butyl-8-ethyl-2-morpholin-4-yl-9H-purin-6-yl)-phenol], the IC50 at mTOR and on PI3K p110α/p85 was below 1000 nM each time.
`CC(C)NC(=O)Cn1cnc2c(-c3cccc(O)c3)nc(N3CCOCC3)nc21` [Compound 83]: the IC50 on mTOR is 1000 to 5000 nM; on PI3K p110α/p85, below 1000 nM.
`COCCn1cnc2c(-c3ccc4cc[nH]c4c3)nc(N3CCOCC3)nc21` [Compound 10, 6-(1H-Indol-6-yl)-9-(2-methoxy-ethyl)-2-morpholin-4-yl-9H-purine]: the IC50 on mTOR was 1000 to 5000 nM; on PI3K p110α/p85 it was above 5000 nM.
Consider `Oc1cccc(-c2nc(N3CCOCC3)nc3c2ncn3CCOc2ccccc2)c1` [Compound 44], for which the IC50 against mTOR and at PI3K p110α/p85 was below 1000 nM throughout.
As to `Oc1cccc(-c2nc(N3CCOCC3)nc3c2ncn3C2CCOC2)c1` (centres unmarked) [Compound 97], the IC50 at mTOR and on PI3K p110α/p85 was below 1000 nM each time.
For `CC(=O)Nc1cccc(Cn2cnc3c(-c4cccc(O)c4)nc(N4CCOCC4)nc32)c1` [Compound 49], the IC50 against mTOR was 1000 to 5000 nM; on PI3K p110α/p85 it was below 1000 nM.
Turning to `c1ccc(Cn2cnc3c(-c4ccc5cc[nH]c5c4)nc(N4CCOCC4)nc32)cc1` [Compound 6], the IC50 at mTOR and at PI3K p110α/p85 was above 5000 nM throughout.
Consider `Oc1ccc(-c2nc(N3CCOCC3)nc3c2ncn3Cc2ccccc2)cc1` [Compound 5], for which the IC50 was 1000 to 5000 nM on mTOR and above 5000 nM on PI3K p110α/p85.
The corresponding values for `CCC(C)n1c(SC)nc2c(-c3cccc(O)c3)nc(N3CCOCC3)nc21` (centres unmarked) [Compound 124, 3-(9-sec-Butyl-8-methylsulfanyl-2-morpholin-4-yl-9H-purin-6-yl)-phenol] are below 1000 nM and below 1000 nM.
On to `CC(C1CC1)n1cnc2c(-c3cccc4[nH]ccc34)nc(N3CCOCC3)nc21` (centres unmarked) [Compound 91], for which the IC50 against mTOR and at PI3K p110α/p85 was below 1000 nM each time.
For the compound `C#CCn1cnc2c(-c3cccc(O)c3)nc(N3CCOCC3)nc21` [Compound 53], the IC50 against mTOR and at PI3K p110α/p85 was below 1000 nM each time.
For `CC(C)Cn1cnc2c(-c3cccc4[nH]ccc34)nc(N3CCOCC3)nc21` [Compound 66], the IC50 on mTOR and at PI3K p110α/p85 was below 1000 nM throughout.
`CCC(C)n1cnc2c(-c3cccc(O)c3)nc(N3CCOCC3)nc21` (centres unmarked) [Compound 90]: the IC50 against mTOR and at PI3K p110α/p85 was below 1000 nM each time.
On to `c1cc2ccc(-c3nc(N4CCOCC4)nc4c3ncn4CC3CC3)cc2[nH]1` [Compound 21], for which the IC50 against mTOR was below 1000 nM; on PI3K p110α/p85, above 5000 nM.
Consider `COCC(C)n1cnc2c(-c3cccc(O)c3)nc(N3CCOCC3)nc21` (centres unmarked) [Compound 68], for which the IC50 against mTOR and at PI3K p110α/p85 was below 1000 nM throughout.
Turning to `c1cc(-c2nc(N3CCOCC3)nc3c2ncn3CCC2OCCCO2)c2cc[nH]c2c1` [Compound 70], the IC50 against mTOR is 1000 to 5000 nM; on PI3K p110α/p85, below 1000 nM.
For `CCN(CC)CCn1cnc2c(-c3cccc(O)c3)nc(N3CCOCC3)nc21` [Compound 98] the same measures were above 5000 nM and below 1000 nM.
As to `CC(=O)Nc1cccc(-c2nc(N3CCOCC3)nc3c2ncn3-c2ccccc2)c1` [Compound 56], the IC50 on mTOR and at PI3K p110α/p85 was above 5000 nM in each case.
As for `c1ccc(Cn2cnc3c(-c4ccc5nc[nH]c5c4)nc(N4CCOCC4)nc32)cc1` [Compound 28], the IC50 against mTOR and on PI3K p110α/p85 was 1000 to 5000 nM in each case.
With `CCCC(=O)N1CCC(n2cnc3c(-c4cccc5[nH]ccc45)nc(N4CCOCC4)nc32)CC1` [Compound 93], the half-inhibitory concentration (IC50) at mTOR and at PI3K p110α/p85 was below 1000 nM throughout.
On to `CCNc1ccc(Cn2cnc3c(-c4cccc(O)c4)nc(N4CCOCC4)nc32)cc1` [Compound 34], for which the IC50 was 1000 to 5000 nM at mTOR and below 1000 nM at PI3K p110α/p85.
`CCC(C)n1c(Br)nc2c(-c3cccc(O)c3)nc(N3CCOCC3)nc21` (centres unmarked) [Compound 114]: the IC50 on mTOR and on PI3K p110α/p85 was below 1000 nM in each case.
Regarding `COCCn1cnc2c(-c3cccc4[nH]ccc34)nc(N3CCOCC3)nc21` [Compound 79], the IC50 at mTOR was 1000 to 5000 nM; on PI3K p110α/p85, below 1000 nM.
With `COc1cccc(Cn2cnc3c(-c4ccc5cc[nH]c5c4)nc(N4CCOCC4)nc32)c1` [Compound 18], the IC50 on mTOR is 1000 to 5000 nM; at PI3K p110α/p85 it was above 5000 nM.
The corresponding values for `O=c1[nH]c2ccc(-c3nc(N4CCOCC4)nc4c3ncn4Cc3ccccc3)cc2[nH]1` [Compound 40] are above 5000 nM and above 5000 nM.
Consider `CS(=O)(=O)N1CCN(CCn2cnc3c(-c4cccc(O)c4)nc(N4CCOCC4)nc32)CC1` [Compound 108], for which the IC50 against mTOR and at PI3K p110α/p85 was below 1000 nM each time.
As for `Fc1cccc(Cn2cnc3c(-c4ccc5[nH]ccc5c4)nc(N4CCOCC4)nc32)c1` [Compound 47], the figures for the IC50 against mTOR and on PI3K p110α/p85 were 1000 to 5000 nM and above 5000 nM, respectively.
Regarding `CCC(C#N)n1cnc2c(-c3ccc(N)nc3)nc(N3CCOCC3)nc21` (centres unmarked) [Compound 137], the figures for the IC50 against mTOR and at PI3K p110α/p85 were below 1000 nM and 1000 to 5000 nM, respectively.
Turning to `CCC(C#N)n1cnc2c(-c3cccc4[nH]ccc34)nc(N3CCOCC3)nc21` (centres unmarked) [Compound 102], the IC50 is 1000 to 5000 nM on mTOR and below 1000 nM on PI3K p110α/p85.
As to `CC(=O)Nc1ccc(Cn2cnc3c(-c4cccc(O)c4)nc(N4CCOCC4)nc32)cc1` [Compound 32], the figures for the IC50 against mTOR and on PI3K p110α/p85 were 1000 to 5000 nM and below 1000 nM, respectively.
For the compound `Oc1cccc(-c2nc(N3CCOCC3)nc3c2ncn3Cc2c(F)cccc2F)c1` [Compound 7], the IC50 at mTOR and on PI3K p110α/p85 was below 1000 nM each time.
In the case of `COc1cccc(Cn2cnc3c(-c4cccc(O)c4)nc(N4CCOCC4)nc32)c1` [Compound 17], the IC50 on mTOR and on PI3K p110α/p85 was below 1000 nM each time.
Regarding `CCC(C)n1cnc2c(-c3ccc(N)nc3)nc(N3CCOCC3)nc21` (centres unmarked) [Compound 132, 5-(9-sec-Butyl-2-morpholin-4-yl-9H-purin-6-yl)-pyridin-2-ylamine], the IC50 against mTOR and at PI3K p110α/p85 was below 1000 nM each time.
In the case of `c1cc2[nH]nnc2cc1-c1nc(N2CCOCC2)nc2c1ncn2CC1CC1` [Compound 64], the IC50 against mTOR is above 5000 nM; on PI3K p110α/p85, 1000 to 5000 nM.

(Values after patent publication US20110009403A1, “2-MORPHOLINYLPURINES AS INHIBITORS OF PI3K” (S*BIO Pte Ltd., priority 2007, published 2011).)
